Test results from the OPERA property sets (Mansouri et al. 2018).

Conditions: not given

Compound | boiling point [°C] | log10 Koc (L/kg) | log10 vapour pressure (mmHg) | melting point [°C] | ready biodegradability | log10 biodegradation half-life (days) | log10 Koa
CCCC(=O)C(C)C | 135 |  |  |  |  |  | 
c1ccc(Oc2ccccc2)cc1 | 258 | 3.29 | -1.65 | 26.8 | readily biodegradable |  | 
Cc1cccc(Oc2cccc(C)c2)c1 | 284 |  |  |  |  |  | 
CCCCCCCCCCCC(C)=O | 263 |  | -1.98 | 30.5 |  |  | 
Clc1c(Br)c(Br)c2c(c1Br)Oc1c(Br)c(Br)c(Cl)c(Br)c1O2 |  |  | -12.5 | 385 |  |  | 
Cc1ccc(C(N)=O)cc1 |  | 1.78 |  | 162 |  |  | 
C=CSC=C | 84 |  |  | 20 |  |  | 
NC(=O)Nc1cccc(Br)c1 |  | 2.12 |  |  |  |  | 
O=C1CN(N=Cc2ccc([N+](=O)[O-])o2)C(=O)N1 |  |  |  | 263 |  |  | 
C[C@]12N[C@H](Cc3ccccc31)c1ccccc12 |  |  |  | 68.8 |  |  | 
Cc1ccc(Oc2ccc(C)cc2)cc1 | 285 |  |  | 51 |  |  | 
CC(=O)NCCSC(C)=O |  |  |  | 32.5 |  |  | 
CCc1ccccc1C | 165 |  | 0.417 |  |  | 0.602 | 
C[SiH](O[SiH](C)O[Si](C)(C)C)O[Si](C)(C)C (stereo unspecified) | 170 |  |  |  |  |  | 
C=CC=C | -4.4 |  | 3.32 | -109 |  |  | 
Cc1cc(Cl)ccc1OCCCC(=O)O |  | 2.73 | -6.36 | 100 |  |  | 
ClC1=C(Cl)C2(Cl)[C@@H]3C[C@@H](Cl)[C@@H](Cl)[C@@H]3C1(Cl)C2(Cl)Cl (mixture of isomers) |  |  |  |  |  |  | 8.89
FCc1ccccc1 | 140 |  | 0.832 | -35 |  |  | 
CCC(=O)c1cccc(OC)c1 | 259 |  |  |  |  |  | 
Ic1cccc2ccccc12 | 302 |  |  | 4.2 | readily biodegradable |  | 
CCc1ccccc1-c1ccccc1CC |  |  |  |  | not readily biodegradable |  | 
Brc1cccc2ccccc12 | 281 |  | -2.01 | -1.8 |  |  | 
CCNNCC | 85.5 | 1.18 |  |  |  |  | 
C=CCOc1ccc(CC(=O)O)cc1Cl |  |  |  | 92.5 |  |  | 
O=[N+]([O-])c1ccc(Oc2ccccc2)c([N+](=O)[O-])c1 |  |  |  | 71 |  |  | 
ClC1=C(Cl)C(Cl)(Cl)C(Cl)(Cl)C1(Cl)Cl | 283 |  |  | 40 |  |  | 
Cc1ccccc1N=Nc1c(N)ccc2ccccc12 |  |  |  | 126 |  |  | 

Compound | boiling point [°C] | log10 Koc (L/kg) | log10 vapour pressure (mmHg) | melting point [°C] | ready biodegradability | log10 biodegradation half-life (days) | log10 Koa
COc1cccc(OC)n1 | 179 |  |  |  |  |  | 
C=C(C)C(=O)OCCN(CC)CC |  |  |  |  | readily biodegradable |  | 
CCOC(=O)c1ccc(O)cc1 | 298 | 2.21 |  | 117 | readily biodegradable |  | 
O=C1c2ccccc2-c2ccccc21 | 342 |  |  | 84 |  |  | 
Cc1ccc(-c2cc(C(F)(F)F)nn2-c2ccc(S(N)(=O)=O)cc2)cc1 |  |  |  | 158 |  |  | 
C#CC(C)O (stereo unspecified) | 106 |  |  | -3 |  |  | 
CCOP(=S)(OCC)Oc1nc(Cl)n(C(C)C)n1 |  | 2.01 | -4.06 |  |  |  | 
c1ccc(-c2cc3ccccc3[nH]2)cc1 |  |  |  | 190 | not readily biodegradable |  | 
Brc1ccc(Br)c(Br)c1 | 275 |  |  | 44.5 |  |  | 
CC(C)(C)NC=O | 202 |  | -0.569 | 16 |  |  | 
Nc1c(Br)cc([N+](=O)[O-])cc1Br |  |  |  | 207 |  |  | 
C=CCC1CCCC1 | 125 |  |  | -111 |  |  | 
O=C(O)Cc1ccccc1 | 266 | 1.45 | -2.42 | 76.5 | readily biodegradable |  | 
O=C1C(=O)c2ccccc2C(Cl)=C1Cl |  |  |  | 184 |  |  | 
COc1ccc(C(=O)c2ccccc2O)c(O)c1 |  |  |  | 68 |  |  | 
CCCCCCCCCCCC[N+](C)(C)CC(=O)[O-] |  |  |  |  | readily biodegradable |  | 
CC/C=C\C/C=C\C/C=C\CCCCCCCC(=O)OC |  |  | -5.29 |  |  |  | 
ClCc1ccc(Cl)cc1 | 223 |  |  | 31 |  |  | 
CCCCCCCCCCCCCCCCCCOO |  |  |  | 49.5 |  |  | 
Nc1ccccc1-c1ccccc1N |  |  | -5.57 | 81 |  |  | 
C=C=C(C)C | 40.8 |  | 2.63 | -114 |  |  | 
O=C1c2ccccc2C(=O)c2c(NCCO)cccc21 |  |  | -11 | 168 |  |  | 
ClC1=C(Cl)C2(Cl)C3C4C=CC(C4)C3C1(Cl)C2(Cl)Cl (stereo unspecified) |  |  |  |  | not readily biodegradable |  | 
CCCCC(C)C(C)C (stereo unspecified) | 140 |  |  | -116 |  |  | 
Fc1ccc(Br)cc1Br |  |  |  | 69 |  |  | 
CC(=O)[C@H]1CC[C@H]2[C@@H]3CCC4=CC(=O)CC[C@]4(C)[C@H]3CC[C@]12C |  |  |  | 121 |  |  | 

Same assay, conditions: fish

Compound | log10 BCF | log10 biotransformation half-life (days)
CCOP(=S)(OCC)Oc1ccc([N+](=O)[O-])cc1 | 1.99 | -0.41
CCCCCCCCc1ccc2ccc3cccc4ccc1c2c34 |  | 1.26
Cc1ccc(Cl)cc1[N+](=O)[O-] | 1.92 | 
c1ccc(Oc2ccccc2)cc1 | 2.5 | -0.09
Brc1ccc(Br)c(Br)c1 | 3.63 | 
CCCCC(C)C(C)C (stereo unspecified) |  | 1.28
